Columns and labels:
[1] = target: T1, RnfG (Methanosarcina acetivorans, UniProt Q8TSY2, T166G); test: protein colour and UV fluorescence of the purified variant; format: binding; conditions: removal of the covalent FMN attachment residue
T1 construct: full-length membrane subunit with C-terminal His6 tag (vector leader removed), made in E. coli LMG194, purified from membranes in dodecyl maltoside; isolated subunit of the Rnf complex

[2] = target: T2, RnfG (Methanosarcina acetivorans, UniProt Q8TSY2); test: UV-visible absorbance of purified protein; UV fluorescence in SDS-PAGE gel; boiling and TCA treatment; format: binding; conditions: covalent (flavin assigned as FMN, attached at Thr166); 25 µM protein, 25 mM Tris-HCl pH 8
T2 construct: full-length membrane subunit with C-terminal His6 tag (vector leader removed), made in E. coli LMG194, purified from membranes in dodecyl maltoside; isolated subunit of the Rnf complex
T2 sequence (Q8TSY2 whole entry): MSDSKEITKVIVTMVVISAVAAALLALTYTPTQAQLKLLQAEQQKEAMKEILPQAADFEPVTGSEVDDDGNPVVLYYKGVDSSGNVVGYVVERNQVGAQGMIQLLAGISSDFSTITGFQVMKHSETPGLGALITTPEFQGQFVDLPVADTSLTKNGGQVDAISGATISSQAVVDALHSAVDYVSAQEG

T1 sequence (Q8TSY2 whole entry T166G): as the sequence (Q8TSY2 whole entry) above, with T166G counted along it

Cc1cc2nc3c(=O)[nH]c(=O)nc-3n(C[C@H](O)[C@H](O)[C@H](O)COP(=O)(O)O)c2cc1C [FMN]
colour and fluorescence [1]: The purified variant was colorless and failed to fluoresce under UV illumination
molar ratio of flavin [2]: 0.84 mol/mol

From article PMC4023990, “Characterization of the RnfB and RnfG Subunits of the Rnf Complex from the Archaeon Methanosarcina acetivorans” (PLoS ONE, 2014)
